Results on one compound are retold here after patent publication US5900434A, “Method for inhibiting the production of interleukin-1 or tumor necrosis factor-α by administering acanthoic acid” (Korea Institute of Science and Technology, priority 1994, dated 1999).

Experiment [1] has as its system H2O2 production in human neutrophils. The experiment can be described thus: Production of H2O2 in human neutrophils (PMA-stimulated). Type of experiment: cell-based. The protocol: Normal human peripheral blood was heparin-treated and diluted with equal amount of Hank's balanced salt solution (HBSS: Ca^2+ and Mg^2+ free). The diluted blood was put into a centrifuge tube containing therein Ficoll-Hypaque(Sigma, St. Louis, Mo., U.S.A.) layer having a density of 1.077 piled up on Ficoll-Hypaque layer having a density of 1.119, and then centrifuged at 700×g for 30 minutes to obtain monocytes from the layer between Ficoll-Hypaque layer having a density of 1.077 and serum layer, and neutrophils from the layer between Ficoll-Hypaque layer having a density of 1.077 and that having a density of 1.119. The separated cells were washed twice with 4° C. HBSS(Ca^2+ and Mg^2+ free) and suspended in RPMI 1640 medium(Gibco, Grand Island, N.Y., U.S.A.) containing 10% fetal bovine serum(FBS, Hyclone, Logan, Utah, U.S.A.). The suspensions were added to the wells of 24-well incubation plate(Costar, Cambridge, Mass., U.S.A.) and incubated at 37° C. for 2 hours to obtain monocytes, macrophages and neutrophils. Inflammatory responses are known as a cascade reaction comprising the secretion of various cytokines, e.g., IL-1, from immune cells stimulated by various stimulants; production of phospholipase A2, lysosomal enzyme, reactive oxygen species, etc. by other immune cells stimulated by said cytokines; and damage of tissues induced by the above products(Pruzanski, W. and […]., Immunol. Today, 12, 143(1991)). The ability of acanthoic acid to block the inflammatory reactions was tested by measuring their inhibitory activity to the production of reactive oxygen species, i.e., H2 O2 and O2^-. The amount of H2 O2 was determined by a microassay employing 96-well microplate as follows. 5×10^5 cells of neutrophils were added to each of the wells containing RPMI 1640 medium, and then 25 μl of horseradish peroxidase (500 μg/ml; type II, Sigma) and 75 μl of phenol red(1 mg/ml) were added to each of the wells. Thereafter, the cells were treated with 10, 20 and 50 μg/ml of acanthoic acid for an hour, stimulated with 10^-7 M phorbol myristate acetate(PMA) and then incubated at 37° C. for 60 minutes. When the incubation was completed, 3M NaOH was added to the wells in an amount of 25 μl/well to stop the reaction and O.D. was measured at 620 nm by using ELISA reader(Dynatech Lab. Inc.) to determine the change of colors with respect to the oxidation of phenol. The amount of H2 O2 was determined by employing a standard curve prepared by diluted H2 O2 (Sigma).

Experiment [2] concerns O2^- production in human neutrophils. The experiment is described as follows: Production of O2^- in human neutrophils (PMA-stimulated). Type of experiment: cell-based. The protocol:
Normal human peripheral blood was heparin-treated and diluted with equal amount of Hank's balanced salt solution (HBSS: Ca^2+ and Mg^2+ free). The diluted blood was put into a centrifuge tube containing therein Ficoll-Hypaque(Sigma, St. Louis, Mo., U.S.A.) layer having a density of 1.077 piled up on Ficoll-Hypaque layer having a density of 1.119, and then centrifuged at 700×g for 30 minutes to obtain monocytes from the layer between Ficoll-Hypaque layer having a density of 1.077 and serum layer, and neutrophils from the layer between Ficoll-Hypaque layer having a density of 1.077 and that having a density of 1.119. The separated cells were washed twice with 4° C. HBSS(Ca^2+ and Mg^2+ free) and suspended in RPMI 1640 medium(Gibco, Grand Island, N.Y., U.S.A.) containing 10% fetal bovine serum(FBS, Hyclone, Logan, Utah, U.S.A.). The suspensions were added to the wells of 24-well incubation plate(Costar, Cambridge, Mass., U.S.A.) and incubated at 37° C. for 2 hours to obtain monocytes, macrophages and neutrophils. Inflammatory responses are known as a cascade reaction comprising the secretion of various cytokines, e.g., IL-1, from immune cells stimulated by various stimulants; production of phospholipase A2, lysosomal enzyme, reactive oxygen species, etc. by other immune cells stimulated by said cytokines; and damage of tissues induced by the above products(Pruzanski, W. and […]., Immunol. Today, 12, 143(1991)). The ability of acanthoic acid to block the inflammatory reactions was tested by measuring their inhibitory activity to the production of reactive oxygen species, i.e., H2 O2 and O2^-. For the purpose of measuring the amount of produced O2^-, neutrophils suspended in RPMI 1640 medium in a concentration of 1×10^6 cells/800 μl was added to a part of the wells of 24-well plate and 10 μg/ml of superoxide dismutase(SOD, Sigma) was added to the empty wells. The plate was stored at 37° C. for 2 minutes, and cytochrome C(3 mg/ml, Sigma) was added to the wells in a concentration of 100 μl/well. The cells were treated with 10, 20 and 50 μg/ml of acanthoic acid for an hour and reacted at 37° C. for 20 minutes by introducing 10^-7 PMA as a stimulant. The reaction was terminated by adding 1 mM N-ethylmaleimide(Sigma) to the wells and the culture was centrifuged at 1,600×g for 10 minutes to obtain a supernatant. The change of color of the supernatant caused by the reduction of cytochrome C was measured at 550 nm by using a UV-Visible spectrophotometer (Kontron Instrument, Milano, Italy). The amount of produced O2^- was represented by the concentration of SOD which can suppress the reduction of cytochrome C in 1×10^6 cells for 20 minutes, by employing the extinction coefficient of cytochrome C(E550 nm =1.83×10^4 […] cm^-1).

The test system of a further experiment is leukocyte migration. Conditions: cited from earlier work.

For `C=C[C@@]1(C)CC=C2C(CCC3[C@](C)(C(=O)O)CCC[C@@]23C)C1` (single isomer, unassigned; (-)) [acanthoic acid, (-)-pimara-9(11),15-diene-19-oic acid], the activity at 10 µg/mL was found to be 70% in experiment [1] (Neutrophil, 1 h, PMA + acanthoic acid 10 μg/ml, PMA = 100, read-out: Amount of produced reactive oxygen species, H2O2 (% to the control group)) and 76.8% in experiment [2] (Neutrophil, 20 min, PMA + acanthoic acid 10 μg/ml, PMA = 100, read-out: Amount of produced reactive oxygen species, O2^- (% to the control group)). Besides, the activity at 20 µg/mL in experiment [1] (Neutrophil, 1 h, PMA + acanthoic acid 20 μg/ml, PMA = 100, read-out: Amount of produced reactive oxygen species, H2O2 (% to the control group)) came to 37.4%; in experiment [2] (Neutrophil, 20 min, PMA + acanthoic acid 20 μg/ml, PMA = 100, read-out: Amount of produced reactive oxygen species, O2^- (% to the control group)), 31.6%. The activity at 50 µg/mL in experiment [1] (Neutrophil, 1 h, PMA + acanthoic acid 50 μg/ml, PMA = 100, read-out: Amount of produced reactive oxygen species, H2O2 (% to the control group)) came to 15.8%; in experiment [2] (Neutrophil, 20 min, PMA + acanthoic acid 50 μg/ml, PMA = 100, read-out: Amount of produced reactive oxygen species, O2^- (% to the control group)) it was 28.4%. In addition, the figures for the “Amount of produced reactive oxygen species, H2O2” value in experiment [1] (PMA + acanthoic acid 10 μg/ml), in experiment [1] (PMA + acanthoic acid 20 μg/ml) and in experiment [1] (PMA + acanthoic acid 50 μg/ml) were 72.6 nM/60 min, 38.7 nM/60 min and 16.4 nM/60 min, respectively. The inhibition at 50 µg/mL in experiment [2] (Neutrophil, 50 μg/ml, PMA) stood at 72%. Further, the figures for the “Amount of produced reactive oxygen species, O2^-” value in experiment [2] (PMA + acanthoic acid 10 μg/ml), in experiment [2] (PMA + acanthoic acid 20 μg/ml) and in experiment [2] (PMA + acanthoic acid 50 μg/ml) were 11.9 nM/20 min, 4.9 nM/20 min and 4.4 nM/20 min, respectively. The “inhibition of leukocyte migration” value in the experiment on leukocyte migration is recorded as “inhibit the leukocyte migration”.

For orientation: inhibition means how much of the control response was suppressed. A lower inhibition goes with little suppression.
